# Assay results as given in patent US20060264411A1, “Control of biofilm formation” (priority 2005, published 2006).
# Key:
# cysB gene = conditions: examples of U.S. patent application Ser. No. 11/085,279; cited from earlier work
# E. coli UTI89[pCOMGFP] = assay: Biofilm pods / intracellular bacterial communities (IBC) in mouse bladders, confocal microscopy; format: in vivo, C3H/HeN mice
# Protocol: The experiment was performed using the procedures described in Justice, S. et al., Differentiation and development pathways of uropathogenic Escherichia coli in urinary tract pathogenesis.PNAS, 2004, 101(5), p. 1333-1338. Briefly, E. coli UTI89[pCOMGFP] was prepared after retrieval from frozen stocks by inoculating in LB medium statically for approximately 20 hours. Cells were harvested and suspended in 1 ml of PBS. Cells were diluted to achieve approximately a 10^8 CFU or 10^7 CFU input into C3H/HeN mice (2 mice per group).
# Mice were deprived of water for approximately two hours. In experiment 1, all mice were anesthetized with 0.15 cc ketamine cocktail. In experiment 2, all mice were anesthetized with isofluorane. In experiment 1, urine was dispelled from the bladders and approximately 40 μg/ml of test compound or an appropriate amount of ethanol as control was introduced into the bladders via catheterization of the urethra using a tubing coated tuberculin syringe. 30 minutes was allowed to elapse. In experiment 2, bladders were not pre-incubated with test compounds. Bladders were then expelled and an inoculum of 10^8 CFU (Experiment 1) or 10^7 CFU (Experiment 2) of E. coli containing 40 μg/ml of test compound or equivalent amount of ethanol as controls were introduced into the bladders as indicated above.
# In experiment 1 five hours elapsed and in experiment 2 six hours elapsed, and then mice were anesthetized and sacrificed. The bladders were removed, bisected, stretched, and fixed in 3% paraformaldehyde for 1 hour at room temperature. Bladders were then permeabilized in 0.01% Triton/PBS for 10 minutes and counter stained with TOPRO3 (Molecular Probes) for 10 minutes for visualization by confocal microscopy. Bladders were mounted on Prolong antifade (Molecular Probes).
# [1] = test system: P. aeruginosa strain PAO1; assay: Rotating disk reactor (RDR) biofilm test with and without tobramycin; format: cell-based, Pseudomonas aeruginosa; conditions: for Test Compound, log10 CFU: no tobramycin; for Tobramycin and Test Compound, log10 CFU: then tobramycin 100 μg/ml 2 h
# Protocol: Biofilm formation of P. aeruginosa was evaluated using a standardized biofilm method with a rotating disk reactor (RDR). This method provides a model resembling the formation of biofilms in cystic fibrosis patients. The rotating disk reactor consists of a one-liter glass beaker fitted with a drain spout. The bottom of the vessel contains a magnetically driven rotor with six 1.27 cm diameter coupons constructed from polystyrene. The rotor consists of a star-head magnetic stir bar upon which a disk was affixed to hold the coupons. The vessel with the stir bar was placed on a stir plate and rotated to provide fluid shear. A nutrient solution (AB Trace Medium with 0.3 mM glucose, see Table 1 below for composition) was added through a stopper in the top of the reactor at a flow rate of 5 ml/min. The reactor volume was approximately 180 ml and varied slightly between reactors depending on the placement of the drain spout and the rotational speed of the rotor. At a volume of 180 ml, the residence time of the reactors was 36 minutes. The reactors were operated at room temperature (c.a. 26° C.).
# For each test, two RDRs were operated in parallel with one receiving test compound and the other serving as an untreated control. The RDRs were sterilized by autoclave, then filled with sterile medium and inoculated with P. aeruginosa strain PAO1. The reactors were then incubated at room temperature in batch mode (no medium flow) for a period of 24 hours, after which the flow was initiated for a further 24 hour incubation. Test compounds were dissolved in 10 ml ethanol to achieve a concentration of 1.8 mg/ml. After the 48 hours of biofilm development described above, the 10 ml of ethanol containing the test compounds were added to the reactor to achieve a final concentration of approximately 50, 100, or 200 μg/ml. Control reactors received 10 ml of ethanol. The reactors were then incubated for an additional 24 hours in batch (no flow) mode. After this incubation period, the six coupons were removed from each reactor and placed in 12-well polystyrene tissue culture plates with wells containing either 2 ml of a 100 μg/ml tobramycin solution or 2 ml of phosphate-buffered saline (PBS). These plates were incubated at room temperature for two hours. The coupons were then rinsed by three transfers to plates containing 2 ml of fresh PBS. For each two RDR reactors run in parallel, four sets of three coupons were obtained: one set with no test compound treatment and no tobramycin treatment, one set with no test compound treatment and tobramycin treatment, one set treated with a test compound treatment and no tobramycin treatment, and one set treated with a test compound treatment and tobramycin. After rinsing, one coupon of each set of three was stained with a LIVE/DEAD® BacLight™ Bacterial Viability Kit (Molecular Probes, Eugene Oreg.) and imaged using epifluorescent microscopy. The remaining two coupons were placed in 10 ml of PBS and sonicated for five minutes to remove and disperse biofilm cells. The resulting bacterial suspensions were then serially diluted in PBS and plated on tryptic soy agar plates for enumeration of culturable bacteria. The plates were incubated for 24 hours at 37° C. before colony forming units (CFU) were determined.
# The results are averages from experiments performed on three separate days for each test compound. The values reported are as log10 CFU.
# S. sobrinus 6715 = assay: Biofilm growth inhibition in polycarbonate tubes; format: cell-based; conditions: Streptococcus sobrinus, 40 μg/mL
# [2] = test system: P. aeruginosa (ATCC 27853); assay: Antibacterial effect (NCCLS MIC); format: cell-based; conditions: Pseudomonas aeruginosa, ATCC27853, studied at 64 μg/mL, read-out: MIC (minimal inhibitory concentration)
# Protocol: (§1) Using the appropriate NCCLS procedures, the antibacterial effect of asiatic acid on Haemophilus influenzae (ATCC 10211), E. coli (ATCC 25922), and P. aeruginosa (ATCC 27853) was studied at 64 μg/mL.
# E. coli (ATCC 25922) = assay: Antibacterial effect (NCCLS MIC); format: cell-based; conditions: Escherichia coli, ATCC25922, studied at 64 μg/mL, read-out: MIC (minimal inhibitory concentration)
# Protocol: as §1
# [3] = test system: Haemophilus influenzae (ATCC 10211); assay: Antibacterial effect (NCCLS MIC); format: cell-based; conditions: ATCC10211, studied at 64 μg/mL, read-out: MIC (minimal inhibitory concentration)
# Protocol: as §1
# S. mutans 25175 = assay: Biofilm growth inhibition in polycarbonate tubes; format: cell-based; conditions: Streptococcus mutans, 40 μg/mL
compound,measurement,setting,value
"C[C@H]1[C@H](C)CC[C@]2(C(=O)O)CC[C@]3(C)C(=CC[C@@H]4[C@@]5(C)C[C@@H](O)[C@H](O)[C@@](C)(CO)[C@@H]5CC[C@]43C)[C@H]12 [Asiatic acid, asiatic acid]",expression of a cysB gene in E. coli,cysB gene,modulate the expression of a cysB gene
same,reduction in biofilm pods or intracellular bacterial communities (IBC) in the bladders of mice as compared to the controls,"E. coli UTI89[pCOMGFP]; experiment 1: 40 μg/ml intravesical, 30 min pre-incubation, 10^8 CFU, five hours",77%
same,reduction in large biofilm pods or large IBC in the bladders of mice as compared to the controls,"E. coli UTI89[pCOMGFP]; experiment 2: 40 μg/ml with inoculum, no pre-incubation, 10^7 CFU, six hours",~60%
same,"Test Compound, log10 CFU",[1]; test compound 50 μg/ml 24 h,7.7 log10 CFU
same,"Tobramycin and Test Compound, log10 CFU",[1]; test compound 50 μg/ml 24 h,5.3 log10 CFU
same,"Test Compound, log10 CFU",[1]; test compound 100 μg/ml 24 h,7.7 log10 CFU
same,"Tobramycin and Test Compound, log10 CFU",[1]; test compound 100 μg/ml 24 h,5.5 log10 CFU
same,"Test Compound, log10 CFU",[1]; test compound 200 μg/ml 24 h,7.5 log10 CFU
same,"Tobramycin and Test Compound, log10 CFU",[1]; test compound 200 μg/ml 24 h,5.2 log10 CFU
same,inhibition at 40 µg/mL,S. sobrinus 6715,> 75%
same,MIC,[2],> 64 µg/mL
same,MIC,E. coli (ATCC 25922),> 64 µg/mL
same,MIC,[3],> 64 µg/mL
same,inhibition at 40 µg/mL,S. mutans 25175,> 75%
